Laboratory results: ChEMBL document CHEMBL5126512, “Current status of carbazole hybrids as anticancer agents” (Eur J Med Chem, 2022)

What was measured:
[1] = tested on: KYSE-510; assay: Antiproliferative activity against human KYSE-510 cells assessed as cell growth inhibition measured after 48 hrs by CCK-8 assay; assay type: functional, cell-based; details: KYSE-510, 48 h
[2] = Antiproliferative activity against human KYSE-170 cells assessed as cell growth inhibition measured after 48 hrs by CCK-8 assay; assay type: functional, cell-based; details: KYSE-170, 48 h
[3] = tested on: KYSE-410; assay: Antiproliferative activity against human KYSE-410 cells assessed as cell growth inhibition measured after 48 hrs by CCK-8 assay; assay type: functional, cell-based; details: KYSE-410, 48 h
[4] = tested on: KYSE-30; assay: Antiproliferative activity against human KYSE-30 cells assessed as cell growth inhibition measured after 48 hrs by CCK-8 assay; assay type: functional, cell-based; details: KYSE-30, 48 h
[5] = tested on: KYSE-140; assay: Antiproliferative activity against human KYSE-140 cells assessed as cell growth inhibition measured after 48 hrs by CCK-8 assay; assay type: functional, cell-based; details: KYSE-140, 48 h
[6] = tested on: DLD-1; assay: Cytotoxicity against human DLD-1 cells assessed as cell growth inhibition measured after 24 hrs by MTT assay; assay type: functional, cell-based; details: DLD-1, 24 h
[7] = Cytotoxicity against HEK293 cells assessed as cell growth inhibition measured after 24 hrs by MTT assay; assay type: toxicity, cell-based; details: human
[8] = Cytotoxicity against human HaCaT cells assessed as cell growth inhibition measured after 24 hrs by MTT assay; assay type: toxicity, cell-based
[9] = Cytotoxicity against human Kidney epithelial cells assessed as cell growth inhibition measured after 24 hrs by XTT assay; assay type: toxicity, cell-based
[10] = tested on: MCF7; assay: Antiproliferative activity against human MCF7 cells assessed as cell growth inhibition measured after 48 hrs by SRB assay; assay type: functional, cell-based; details: MCF7, 48 h
[11] = tested on: HepG2; assay: Antiproliferative activity against human HepG2 cells assessed as cell growth inhibition measured after 48 hrs by SRB assay; assay type: functional, cell-based; details: HepG2, 48 h
[12] = tested on: MIA PaCa-2; assay: Antiproliferative activity against human MIA PaCa-2 cells assessed as cell growth inhibition measured after 48 hrs by SRB assay; assay type: functional, cell-based; details: MIA PaCa-2, 48 h
[13] = tested on: Bel-7402; assay: Antiproliferative activity against human Bel-7402 cells assessed as cell growth inhibition measured after 48 hrs by SRB assay; assay type: functional, cell-based; details: Bel-7402, 48 h
[14] = tested on: HepG2; assay: Antitumor activity against human HepG2 xenografted in BALB/c nude mouse assessed as tumor growth inhibition at 10 mg/kg, iv administered every 2 days and measured upto 30 days relative to control; assay type: functional; details: HepG2, 720 h, time <= 30 day, read-out: TGI
[15] = tested on: HepG2; assay: Cytotoxicity against human HepG2 cells assessed as cell growth inhibition measured after 48 hrs by MTT assay; assay type: functional, cell-based; details: HepG2, 48 h
[16] = tested on: SMMC-7721; assay: Cytotoxicity against human SMMC-7721 cells assessed as cell growth inhibition measured after 48 hrs by MTT assay; assay type: functional, cell-based; details: SMMC-7721, 48 h
[17] = tested on: Hep 3B2; assay: Cytotoxicity against human Hep3B cells assessed as cell growth inhibition measured after 48 hrs by MTT assay; assay type: functional, cell-based
[18] = Cytotoxicity against human QSG7701 cells assessed as cell growth inhibition measured after 48 hrs by MTT assay; assay type: toxicity, cell-based
[19] = tested on: HeLa; assay: Antiproliferative activity against human HeLa cells assessed as cell growth inhibition by MTT assay; assay type: functional, cell-based
[20] = tested on: HeLa; assay: Potency index, ratio of cisplatin IC50 to compound IC50 for antiproliferative activity against human HeLa cells by MTT assay; assay type: functional
[21] = tested on: MCF7; assay: Cytotoxicity against human MCF7 cells assessed as cell growth inhibition measured after 72 hrs by MTT assay; assay type: functional, cell-based; details: MCF7, 72 h
[22] = tested on: MDA-MB-231; assay: Cytotoxicity against human MDA-MB-231 cells assessed as cell growth inhibition measured after 72 hrs by MTT assay; assay type: functional, cell-based; details: MDA-MB-231, 72 h
[23] = Cytotoxicity against human MCF-12A cells assessed as cell growth inhibition measured after 72 hrs by MTT assay; assay type: toxicity, cell-based
[24] = tested on: HeLa; assay: Antiproliferative activity against human HeLa cells assessed as cell growth inhibition by WST-1 assay; assay type: functional, cell-based
[25] = tested on: CCRF-CEM; assay: Antiproliferative activity against human CCRF-CEM cells assessed as cell growth inhibition measured after 48 hrs by SRB assay; assay type: functional, cell-based
[26] = tested on: A549; assay: Antiproliferative activity against human A549 cells assessed as cell growth inhibition measured after 48 hrs by SRB assay; assay type: functional, cell-based; details: A549, 48 h
[27] = tested on: MDA-MB-231; assay: Antiproliferative activity against human MDA-MB-231 cells assessed as cell growth inhibition measured after 72 hrs by MTT assay; assay type: functional, cell-based; details: MDA-MB-231, 72 h
[28] = tested on: MCF7; assay: Antiproliferative activity against human MCF7 cells assessed as cell growth inhibition measured after 72 hrs by MTT assay; assay type: functional, cell-based; details: MCF7, 72 h
[29] = tested on: HepG2; assay: Cytotoxicity against human HepG2 cells assessed as cell growth inhibition measured after 72 hrs by MTT assay; assay type: functional, cell-based; details: HepG2, 72 h
[30] = Cytotoxicity against mouse 3T3-L1 cells assessed as cell growth inhibition measured after 72 hrs by MTT assay; assay type: toxicity, cell-based
[31] = Cytotoxicity against human MCF-10A cells assessed as cell growth inhibition measured after 72 hrs by MTT assay; assay type: toxicity, cell-based
[32] = tested on: HeLa; assay: Cytotoxicity against human HeLa cells assessed as cell growth inhibition measured after 72 hrs by MTT assay; assay type: functional, cell-based; details: pooled result: one value given for 3 cell lines, strains, targets or settings

For `COc1ccc(NS(=O)(=O)c2ccc3c(c2)c2cc(O)ccc2n3C)c(OC)n1`, the IC50 [1] was 0.01 µM, the IC50 [2] was 0.01 µM and the IC50 [3] was 0.01 µM. The IC50 [4] was 0.01 µM and the IC50 [5] was 0.01 µM.

For `COc1ccc2c(c1)[nH]c1c3c(c(C)cc12)OC(C)(C)C=C3`, the IC50 [6] was 17.9 µM, the IC50 at 24 h [7] was > 100 µM and the IC50 at 24 h [8] was > 100 µM.

In the case of `CN(C)CCCNC(=O)c1ccc(-n2cc(-c3ccc4c(c3)c3ccccc3n4CCCN(C)C)nn2)cc1`, the IC50 at 24 h [9] is reported as > 30 µM.

Work on `COc1ccc(NS(=O)(=O)c2ccc3c(c2)c2cc(OCCCN4CCN(C)CC4)ccc2n3C)c(OC)n1` yielded an IC50 [10] of 5.67 µM, an IC50 [11] of 5.67 µM and an IC50 [12] of 5.67 µM. For the same compound, the IC50 [13] was 5.67 µM and the inhibition in vivo at 10 mg/kg [14] was 61.1%.

`CCOc1ccc2c(c1)c1c(n2CCN2CCNCC2)-c2cc(C(C)C)ccc2[C@@]2(C)CCC[C@@](C)(C(=O)OC)C12` (stereo not given in full) gave an IC50 [15] of 0.51 µM, an IC50 [16] of 0.51 µM and an IC50 [17] of 0.51 µM. The IC50 at 48 h [18] was 12.5 µM.

In the case of `CCCCCCCCn1c2ccc(/C=C/C(=O)c3ccccc3[N+](=O)[O-])cc2c2cc(C(C)=O)ccc21`, the IC50 [19] is reported as 5.64 µM and the “Ratio IC50” value [20] is reported as 2.

For `CC[n+]1c(/C=C/c2ccc3c(c2)c2ccccc2n3CCCCn2ccnc2)sc2ccccc21`, the IC50 [21] was 9.5 µM, the IC50 [22] was 11.4 µM and the IC50 at 72 h [23] was > 18 µM.

In the case of `CC(C)=CCCC1(C)C=Cc2c(c(C)cc3c2[nH]c2c(-c4c(O)ccc5c4[nH]c4c6c(c(C)cc45)OC(C)(CCC=C(C)C)C=C6)c(O)ccc23)O1` (stereo not given), the IC50 [24] is reported as 20 µM.

For `COc1ccc2c(c1)c1cc3c(-c4c([N+](=O)[O-])ncn4C)nccc3c(C)c1n2C`, the IC50 [25] was 1.08 µM, the IC50 [26] was 1.08 µM and the IC50 [10] was 1.08 µM.

With `C[N+](C)(C)CCN1CCN(CCCCCn2c3ccccc3c3cc(Cl)ccc32)CC1` the IC50 [27] was 4.4 µM and the IC50 [28] was 4.4 µM.

Work on `COc1cc(NC(=O)Nc2cc(C)c3[nH]c4ccc(C)cc4c3c2C)cc(OC)c1OC` yielded an IC50 [21] of 1.93 µM, an IC50 [22] of 1.93 µM and an IC50 [29] of 1.93 µM. For the same compound, the IC50 at 72 h [30] was 141 µM, the IC50 at 72 h [31] was 210 µM and the IC50 [32] was 1.93 µM.
